# Data published in patent publication US10112911B2, “Substituted cyanoguanidines as oral anti-virals” (Abbvie Inc, priority 2012, dated 2018).
# Counter-ions that a name gives are not always drawn.
# Tested on: RSV (Group A, Long Strain)
# Assay: Cytopathetic effect (CPE) protection antiviral assay, MTT readout
# Type: cell-based
# Conditions: human respiratory syncytial virus, HEp-2, 96 h, HEp-2 cells, 0.2 MOI RSV, 4 days incubation, protection from CPE (Table 1); read-out: RSV EC50
# Protocol: HEp-2 cells and RSV (Group A, Long Strain) were obtained from the American Type Culture Collection (Manassas, Va.).
# A cytopathetic effect (CPE) protection assay was performed to determine the ability of a compound to protect the cells from viral infection and thus the CPE induced by viral infection. 96-Well plates were first seeded with […] per well in Dulbecco's modified Eagle's medium (DMEM) containing 10% fetal bovine serum (FBS). One day after the cells were seeded, they were preincubated with serial dilutions of compounds prepared in 100 μL assay medium (DMEM mixed with F12 medium at a 1:1 ratio, supplemented with 2% FBS and 1 mM sodium pyruvate) for 1 hour at 37° C. 100 μL of assay medium containing 0.2 multiplicity of infection (MOI) of RSV was then added to each well of cells. In addition to wells containing infected cells incubated with compounds, each plate also contained replicates of two kinds of controls: (1) Virus control contained cells infected with 0.2 MOI of RSV in assay medium, (2) Uninfected cell control contained cells incubated with assay medium only. After 4 days of incubation at 37° C., the viability of cells was assessed using MTT (Thiazolyl blue tetrazolium bromide, Sigma). A stock solution of MTT, at a concentration of 4 mg/mL in phosphate-buffered saline, was added to all wells at 25 μL per well. Plates were further incubated for 4 hours, and each well was then treated with 50 μL of a solution containing 20% sodium dodecyl sulfate (SDS) and 0.02 N HCl. After an overnight incubation, the plates were measured on a BioTek® microtiter plate reader at wavelengths of 570 nm and 650 nm. The MTT detection is based on the fact that viable (uninfected) cells can reduce the tetrazolium salts into colored formazan products, which can then be quantitated by spectrometry. Based on the spectrometric absorbance of each sample, the percent of protection from CPE, which is an indicator of protection from viral infection, can be calculated for each compound and the 50% effective concentrations (EC50) can be calculated using a nonlinear regression curve fitting equation provided by the GraphPad Prism® 4 software.
# Compounds were tested to determine both their antiviral and toxicity to determine their therapeutic window. Determination of the EC50 and TD50 of these active compounds were repeated one additional time to confirm the window.
row,SMILES,EC50 [µM]
1,"Cc1cccc(F)c1N/C(=N/C#N)N1CCN(c2cnc3ccccc3n2)CC1C(C)C (stereo not drawn) [Example 1.33, N′-cyano-N-(2-fluoro-6-methylphenyl)-2-isopropyl-4-(quinoxalin-2-yl)piperazine-1-carboximidamide]",0.3
2,"CC(C)C1CN(c2cnc3ccccc3n2)CCN1/C(=N\C#N)Nc1ccc(F)cc1 (stereo not drawn) [Example 1.23, N′-cyano-N-(4-fluorophenyl)-2-isopropyl-4-(quinoxalin-2-yl)piperazine-1-carboximidamide]",> 10
3,"Cc1cccc(C)c1N/C(=N/C#N)N1CCN(c2cnc3ccccc3n2)CC1C(C)C (stereo not drawn) [Example 1.17, N′-cyano-N-(2,6-dimethylphenyl)-2-isopropyl-4-(quinoxalin-2-yl)piperazine-1-carboximidamide]",0.54
4,"CC(C)C1CN(c2cnc3ccccc3n2)CCN1/C(=N\C#N)Nc1ccc(Cl)cc1 (stereo not drawn) [Example 1.15, N-(4-chlorophenyl)-N′-cyano-2-isopropyl-4-(quinoxalin-2-yl)piperazine-1-carboximidamide]",> 10
5,"Cc1cc(F)c(F)cc1N/C(=N/C#N)N1CCN(c2cnc3ccccc3n2)CC1C(C)C (stereo not drawn) [Example 1.34, N′-cyano-N-(4,5-difluoro-2-methylphenyl)-2-isopropyl-4-(quinoxalin-2-yl)piperazine-1-carboximidamide]",> 3.1
6,"Cc1ccccc1N/C(=N/C#N)N1CCN(c2cnc3ccccc3n2)CC1C1CCCCC1 (stereo not drawn) [Example 1.48, N′-cyano-2-cyclohexyl-N-(2-methylphenyl)-4-(quinoxalin-2-yl)piperazine-1-carboximidamide]",1.34
7,"Cc1ccccc1CN/C(=N/C#N)N1CCN(c2cnc3ccccc3n2)CC1C(C)C (stereo not drawn) [Example 1.35, N′-cyano-2-isopropyl-N-(2-methylbenzyl)-4-(quinoxalin-2-yl)piperazine-1-carboximidamide]",> 10
8,"CC(C)C1CN(c2cnc3ccccc3n2)CCN1/C(=N\C#N)Nc1cc(C(C)(C)C)nn1C (stereo not drawn) [Example 1.36, N-(3-tert-butyl-1-methyl-1H-pyrazol-5-yl)-N′-cyano-2-isopropyl-4-(quinoxalin-2-yl)piperazine-1-carboximidamide]",> 6.6
9,"CC(C)C1CN(c2cnc3ccccc3n2)CCN1/C(=N\C#N)Nc1ccc(F)cc1Cl (stereo not drawn) [Example 1.30, N-(2-chloro-4-fluorophenyl)-N′-cyano-2-isopropyl-4-(quinoxalin-2-yl)piperazine-1-carboximidamide]",> 10
10,"COc1ccccc1N/C(=N/C#N)N1CCN(c2cnc3ccccc3n2)CC1C(C)C (stereo not drawn) [Example 1.18, N′-cyano-2-isopropyl-N-(2-methoxyphenyl)-4-(quinoxalin-2-yl)piperazine-1-carboximidamide]",1.16
11,"Cc1ccccc1N/C(=N/C#N)N1CCN(c2cnc3ccccc3n2)CC1CC(C)C (stereo not drawn) [Example 1.37, N′-cyano-2-isobutyl-N-(2-methylphenyl)-4-(quinoxalin-2-yl)piperazine-1-carboximidamide]",0.4
12,"Cc1ccc2ncc(N3CCN(/C(=N\C#N)Nc4ccccc4C)C(C(C)C)C3)nc2c1 (stereo not drawn) [Example 1.56, N′-cyano-2-isopropyl-N-(2-methylphenyl)-4-(7-methylquinoxalin-2-yl)piperazine-1-carboximidamide]",1.6
13,"CC(C)C1CN(c2cnc3ccccc3n2)CCN1/C(=N\C#N)Nc1ccccc1OC(F)(F)F (stereo not drawn) [Example 1.27, N′-cyano-2-isopropyl-4-(quinoxalin-2-yl)-N-[2-(trifluoromethoxy)phenyl]piperazine-1-carboximidamide]",> 10
14,"Cc1cccc(N/C(=N/C#N)N2CCN(c3cnc4ccccc4n3)CC2C(C)C)c1 (stereo not drawn) [Example 1.22, N′-cyano-2-isopropyl-N-(3-methylphenyl)-4-(quinoxalin-2-yl)piperazine-1-carboximidamide]",0.4

# Next, values leading:
row,EC50 [µM],SMILES
1,> 10,"Cc1ccccc1N/C(=N/C#N)N1CCN(c2nc3ccccc3nc2C(F)(F)F)CC1C(C)C (stereo not drawn) [Example 1.53, N′-cyano-2-isopropyl-N-(2-methylphenyl)-4-[3-(trifluoromethyl)quinoxalin-2-yl]piperazine-1-carboximidamide]"
2,2.99,"Cc1ccccc1NC(=NC#N)N1CCN(c2nc3ccccc3n2C)CC1C(C)C (stereo not drawn) [Example 1.69, N′-cyano-2-isopropyl-4-(1-methyl-1H-benzimidazol-2-yl)-N-(2-methylphenyl)piperazine-1-carboximidamide]"
3,> 10,"Cc1ncccc1N/C(=N/C#N)N1CCN(c2cnc3ccccc3n2)CC1C(C)C (stereo not drawn) [Example 1.73, N′-cyano-2-isopropyl-N-(2-methylpyridin-3-yl)-4-(quinoxalin-2-yl)piperazine-1-carboximidamide]"
4,> 10,"Cc1ccccc1N/C(=N/C#N)N1CCN(c2cnc3ccccc3n2)CC12CC2 [Example 1.45, N′-cyano-N-(2-methylphenyl)-7-(quinoxalin-2-yl)-4,7-diazaspiro[2.5]octane-4-carboximidamide]"
5,> 3.2,"Cc1ccccc1N/C(=N/C#N)N1CCN(c2cnc3ccccc3n2)CC1CC1CCCCC1 (stereo not drawn) [Example 1.49, N′-cyano-2-(cyclohexylmethyl)-N-(2-methylphenyl)-4-(quinoxalin-2-yl)piperazine-1-carboximidamide]"
6,> 10,"CC(C)CC1CN(c2cnc3ccccc3n2)CCN1/C(=N\C#N)Nc1ccccc1F (stereo not drawn) [Example 1.39, N′-cyano-N-(2-fluorophenyl)-2-isobutyl-4-(quinoxalin-2-yl)piperazine-1-carboximidamide]"
7,> 61.7,"Cc1ccccc1NC(=NC#N)N1CCN(c2cnc3ccccc3n2)CC1 [Example 1.74, N′-cyano-N-(2-methylphenyl)-4-(quinoxalin-2-yl)piperazine-1-carboximidamide]"
8,> 3.2,"Cc1ccccc1N/C(=N/C#N)N1CCN(c2cnc3cc(Cl)c(Cl)cc3n2)CC1C(C)C (stereo not drawn) [Example 1.58, N′-cyano-4-(6,7-dichloroquinoxalin-2-yl)-2-isopropyl-N-(2-methylphenyl)piperazine-1-carboximidamide]"
9,> 10,"Cc1ccccc1N/C(=N/C#N)N1CCN(c2cnc3ccccc3n2)CC1C (stereo not drawn) [Example 1.42, N′-cyano-2-methyl-N-(2-methylphenyl)-4-(quinoxalin-2-yl)piperazine-1-carboximidamide]"
10,> 5.37,"Cc1ccncc1NC(=NC#N)N1CCN(c2cnc3ccccc3n2)CC1C(C)C (stereo not drawn) [Example 1.72, N′-cyano-2-isopropyl-N-(4-methylpyridin-3-yl)-4-(quinoxalin-2-yl)piperazine-1-carboximidamide]"
11,> 3.2,"Cc1ccccc1N/C(=N/C#N)N1CCN(c2cnc3cccc(C(F)(F)F)c3n2)CC1C(C)C (stereo not drawn) [Example 1.59, N′-cyano-2-isopropyl-N-(2-methylphenyl)-4-[8-(trifluoromethyl)quinoxalin-2-yl]piperazine-1-carboximidamide]"

# Same assay, conditions: human respiratory syncytial virus, HEp-2, 96 h, read-out: RSV EC50
row,SMILES,EC50 [µM]
1,"Cc1ccccc1NC(=NC#N)N1CCN(c2cnc3ccccc3n2)CCC1C(C)C (stereo not drawn) [Example 3.1, N′-cyano-7-isopropyl-N-(2-methylphenyl)-4-(quinoxalin-2-yl)-1,4-diazepane-1-carboximidamide]",> 32
2,"Cc1ccccc1N/C(=N/C#N)N1CCN(c2cnc3ccccc3n2)C[C@H]1C(C)C [Example 1.12, (2R)—N′-cyano-2-isopropyl-N-(2-methylphenyl)-4-(quinoxalin-2-yl)piperazine-1-carboximidamide trifluoroacetate]",> 32
